Experimental data as given in patent US20250263439A1, “HETERODIMERIC PEPTIDE REAGENTS AND METHODS” (REGENTS OF THE UNIVERSITY OF MICHIGAN, priority 2018, published 2025).
“Also recorded” adds a separate entry of the source.

Legend:
[1] = test system: OE33 cells; assay: Apparent association time constant by flow cytometry with OE33 cells; format: binding, human
Experimental: The apparent association time constant (Ka) was measured to assess binding kinetics to OE33 cells. OE33 cells were grown to about 80% confluence in 10 cm dishes, and cells were then detached with PBS-based cell dissociation buffer (Invitrogen). About 10^5 cells were incubated with 1 μM of the heterodimer at 4° C. for different time periods ranging from […]. The cells were centrifuged, washed with cold PBS, and fixed with 4% PFA. Flow cytometry was performed, and the median fluorescence intensity (y) was ratioed with that of OE33 cells without addition of peptide at time points (t) using Flowjo software. The rate constant K was calculated by fitting the data to the first-order kinetics model, y(t)=Imax[1−exp^(−kt)], where Imax=maximum value, using Prism 5.0 software.

[2] = test system: EGFR and/or ErbB2 in SKBr3 cells; assay: Co-localization of Cy5.5 heterodimer with anti-EGFR and anti-ErbB2 antibodies on SKBr3 cells; format: cell-based, human; settings: confocal microscopy
Experimental: Co-localization experiments were performed to validate specific heterodimer binding to EGFR and/or ErbB2 in SKBr3 cells. Cells were cultured to about 70% confluence on glass coverslips, washed with PBS, and incubated with 2% BSA in PBS for 30 min to block non-specific binding. 1 μM of Cy5.5-labeled peptides were added and incubated for 30 min or 1 hour at 4° C. The cells were then washed 3× with PBS, fixed with ice cold 4% paraformaldehyde (PFA) for 10 min, washed with PBS 1×, and then mounted on glass slides with ProLong Gold reagent containing DAPI (Invitrogen).
For antibody staining, cells were incubated with either anti-EGFR (1:500, #2232S) or anti-ErbB2 (1:500, #29D8) primary antibody from Cell Signaling Inc overnight at 4° C. after fixation, and then washed with PBS 3× and processed with secondary antibody staining. Either goat anti-rabbit IgG (H+L) labeled with Alexa-Fluor 488 (1:1000, #A-11008, Invitrogen) or goat anti-mouse IgG (H&L) labeled with Alexa-Fluor 568 (1:1000, #ab175473, Abcam) was added and incubated for 1 hour at room temperature (RT). The cells were washed with PBS 3×, and mounted onto glass coverslips. Confocal fluorescence images were collected using DAPI, AF488, AF568 and Cy5.5 filter sets. Fluorescence intensities from 3 independent images were quantified using custom Matlab (Mathworks) software.

[3] = test system: EGFR or ErbB2 in SKBr3 cells; assay: siRNA knockdown of EGFR or ErbB2 in SKBr3 cells, confocal binding; format: cell-based, human
Experimental: siRNA knockdown experiments were performed to further validate specific heterodimer binding to either EGFR or ErbB2 in vitro. Separate siRNA knockdown of either EGFR or ErbB2 expression in SkBr3 cells was carried out to validate specific peptide binding. ON-TARGET plus human EGFR siRNA (#L-003114-00-0005), ONTARGET plus human ErbB2 siRNA (#L-003126-00-0005) and ON-TARGET plus non-targeting pool (#D-001810-10-05) were used.
siRNA at 5 μM concentration in 5 μL was transfected into SKBr3 cells using DharmaFECT transfection reagents (Thermo Scientific). Briefly, cells were seeded in 6-well culture plates at 30% confluence in McCoy's 5 Å media supplemented with 10% FBS without antibiotics. The cells were transfected with siRNA at a final concentration of […] using oligofectamine (Thermo Scientific). Knockdown of either EGFR or ErbB2 was confirmed by Western blot.

[4] = Hydrophilicity of heterodimer; format: physicochemical
[5] = test system: OE33 cells; assay: Apparent dissociation constant by flow cytometry with OE33 cells; format: binding, human
Experimental: The apparent dissociation constant (Kd) was measured to assess binding affinity of the heterodimer to OE33 cells. The heterodimer was serially diluted in PBS at concentrations of about 0, 10, 25, 50, 100, and 200 nM with about […] at 4° C. for one hour and washed with cold PBS. The mean fluorescence intensities were measured with flow cytometry (BD LSRII, BD Biosciences). The equilibrium dissociation constant Kd 1/Ka was calculated with a least-squares fit of the data to the nonlinear equation I=(I0+ImaxKa[X])/(I0+Ka[X]). I0 and Imax are the initial and maximum fluorescence intensities, corresponding to no peptide and at saturation, respectively, and [X] represents the concentration of bound peptide. Prism 5.0 software (Graphpad Inc.) was used to calculate Kd and Ka.

[6] = test system: Barrett's neoplasia (HGD and EAC); assay: Confocal microscopy of human esophageal specimens ex vivo
Experimental: The fluorescence intensities from the human esophageal specimens were fit according to 4 histological classifications, including squamous (SQ), Barrett's esophagus (BE), high-grade dysplasia (HGD), and esophageal adenocarcinoma (EAC), and used a one-way ANOVA and used Tukey's multiple comparisons. Co-localization of peptide and antibody binding was evaluated using Pearson's correlation coefficient.
Using confocal microscopy, specific heterodimer binding to Barrett's neoplasia was validated on human specimens ex vivo. Formalin-fixed, paraffin-embedded (FFPE) specimens of human esophagus were obtained from the archived tissue bank in the Department of Pathology, University of Michigan. The tissues were cut into […], deparaffinized, and rehydrated using standard conditions. Two-step acidic and protease-based antigen retrieval was performed. The sections were blocked with protein serum for 10 min at RT followed by rinsing with PBS, and then incubated with the heterodimer (0.5 μM) for ten min in dark conditions at RT. The sections were then washed for three min 3× with PBS and further incubated sequentially with 1:200 dilution of EGFR monoclonal antibody (H11, #MA5-13070, Invitrogen) and 1:500 goat anti-mouse IgG (H+L) AF-568-labeled secondary antibody (#A-11004, Thermo Fisher Scientific), 1:500 dilution of ErbB2 primary antibody (#29D8, rabbit monoclonal antibody #2165S, Cell Signaling Inc), and 1:1000 goat anti-rabbit IgG (H+L) AF-488-labeled secondary antibody (#A11008, Life Technologies Corp). Each antibody was incubated for 1 hour at RT. Sections were washed with TBST 3× and mounted with Prolong Gold reagent containing DAPI (Invitrogen) using #1 cover glass ([…]). Confocal fluorescence microscopy was performed using DAPI, AF488, AF568 and Cy5.5 filter sets. Image quantification was performed by placing 3 boxes with dimensions of 20×20 μm^2 completely within cells found in the epithelium. Mean fluorescence intensities were measured using custom Matlab software (Mathworks). Regions of saturated intensities were avoided.

heterodimer of QRHKPRE (SEQ ID NO: 1) and KSPNPRF (SEQ ID NO: 2) with E3 (triethyleneglycol) linker, Cy5.5 label [QRH*-KSP*-E3-Cy5.5]
apparent association time constant Ka ([1]; flow cytometry, 1 μM, 4° C.): 0.22 min⁻¹ | apparent association time constant (time) ([1]; value in brackets after Ka): 4.5 min | binding to surface of SKBr3 cells [2]: bind strongly | binding to siCL (control) versus siEGFR (knockdown) SKBr3 cells ([3]; confocal microscopy, similar results for siErbB2): Less signal; also recorded: significantly greater binding | binding to surface of siCL (control) SKBr3 cells ([3]; non-targeting siRNA): strong binding | mean fluorescence intensity in EGFR or ErbB2 knockdown cells ([3]; quantified, versus control SKBr3 cells): significant reduction | Hydrophilicity [4]: good | improved binding affinity compared with either monomer alone [5]: 2 fold | Kd ([5]; flow cytometry, 4° C.): 23 nM | staining of high-grade dysplasia (HGD) and esophageal adenocarcinoma (EAC) ([6]; human specimens ex vivo): increased signal; also recorded: increased staining intensity | staining of squamous (SQ) and Barrett's esophagus (BE) ([6]; human specimens ex vivo): Minimal fluorescence signal; also recorded: minimal staining | mean fluorescence intensity of neoplasia compared with BE and SQ ([6]; n=31, 8, 23, and 12 specimens of SQ, BE, HGD, EAC): significantly greater mean fluorescence intensity
